Test results taken from patent publication US20040242591A1, “Oxazolidinone derivatives as pontential antimicrobials” (priority 2001, published 2004).

Experiments:
VRE 6A = assay: MIC by agar incorporation method, VRE 6A; type: cell-based, Enterococcus faecium; design: unit not given here; conditions: Mueller Hinton agar, 10^4 CFU/spot, 18 hours
Text: 4) Ent. faecium […]—Enterococcus faecium 6A Van®, Cipro®

Strep. pne. ATCC 6303 = assay: MIC by agar incorporation method, S. pneum 6303; type: cell-based, Streptococcus pneumoniae; conditions: Mueller Hinton agar, 10^4 CFU/spot, 18 hours
Text: 5) Strep. pne. ATCC 6303—Streptococcus pneumoniae ATCC 6303

Ent. faecalis ATCC 29212 = assay: MIC by agar incorporation method, E.faecalis 29212; type: cell-based, Enterococcus faecalis; design: unit not given here; conditions: Mueller Hinton agar, 10^4 CFU/spot, 18 hours
Text: 3) Ent. faecalis ATCC 29212—Enterococcus faecalis ATCC 29212

MRSA 15187 = assay: MIC by agar incorporation method, MRSA 15187; type: cell-based, Methicillin Resistant Staphylococcus aureus; design: unit not given here; conditions: Mueller Hinton agar, 10^4 CFU/spot, 24 hours
Text: 2) MRSA 15187—Methicillin Resistant Staphylococcus aureus

MRSA 562 = assay: MIC by agar incorporation method, MRSA 562; type: cell-based, Methicillin Resistant Staphylococcus aureus; design: unit not given here; conditions: Mueller Hinton agar, 10^4 CFU/spot, 24 hours
S.aureus ATCC 25923 = assay: MIC by agar incorporation method, S.aureus 25923; type: cell-based, Staphylococus aureus; design: unit not given here; conditions: Mueller Hinton agar, 10^4 CFU/spot, 18 hours
MRSA 33 = assay: MIC by agar incorporation method, MRSA 33; type: cell-based, Methicillin Resistant Staphylococcus aureus; design: unit not given here; conditions: Mueller Hinton agar, 10^4 CFU/spot, 24 hours
Strep.pyog. ATCC 19615 = assay: MIC by agar incorporation method, S.pyogenes 19615; type: cell-based, Streptococcus pyogenes; design: unit not given here; conditions: Mueller Hinton agar, 10^4 CFU/spot, 18 hours
Text: 6) Strep.pyog. ATCC 19615—Streptococcus pyogenes

S. pneum AB 34 = assay: MIC by agar incorporation method, S. pneum AB 34; type: cell-based, Streptococcus pneumoniae; design: unit not given here; conditions: Mueller Hinton agar, 10^4 CFU/spot, 18 hours

Structure (SMILES)	In Vitro (MIC) VRE 6A (VRE 6A)	In Vitro (MIC) S. pneum 6303 (Strep. pne. ATCC 6303) [µg/mL]	In Vitro (MIC) E.faecalis 29212 (Ent. faecalis ATCC 29212)	In Vitro (MIC) MRSA 15187 (MRSA 15187)	In Vitro (MIC) MRSA 562 (MRSA 562)	In Vitro (MIC) S.aureus 25923 (S.aureus ATCC 25923)	In Vitro (MIC) MRSA 33 (MRSA 33)	In Vitro (MIC) S.pyogenes 19615 (Strep.pyog. ATCC 19615)	In Vitro (MIC) S. pneum AB 34 (S. pneum AB 34)
CC(=O)NC[C@H]1CN(c2ccc(N3CCC(N=Cc4ccc([N+](=O)[O-])o4)CC3)c(F)c2)C(=O)O1 [Compound No. 85, (S)-N-[[3-[3-Fluoro-4-[4-{2-furyl-(5-nitro)methylene]-aminopiperidine-1-yl]phenyl]-2-oxo-5-oxazolidinyl]methyl]acetamide]	>8	4	>8	4	4	4	4	2	4
CC(=O)NC[C@H]1CN(c2ccc(N3CCC(NCc4ccc([N+](=O)[O-])o4)CC3)c(F)c2)C(=O)O1 [Compound No. 86, (S)-N-[[3-[3-Fluoro-4-[4-{N-2-furyl-(5-nitro)methyl}-aminopiperidine-1-yl]phenyl]-2-oxo-5-oxazolidinyl]methyl]acetamide]	0.5	2	0.5	1	1	1	1	<0.25	2
CC(=O)NC[C@H]1CN(c2ccc(N3CCN(Cc4cc(N(C)C)c([N+](=O)[O-])s4)CC3)c(F)c2)C(=O)O1 [Compound No. 19, (S)-N-[[3-[3-Fluoro-[N-1-[4-{2-thiophen-(4-dimethylamino-5-nitro)methyl}]piperazinyl]phenyl]-2-oxo-5-oxazolidinyl]methyl]-acetamide]	4	2	4	4	8	4	8	2	2
CC(=O)NC[C@H]1CN(c2ccc(N3CCN(C(C)c4ccc([N+](=O)[O-])s4)CC3)c(F)c2)C(=O)O1 (stereo partly drawn) [Compound No. 100]	0.5	2	0.5	0.5	0.5	0.5	0.5	2	2
CCN(C(=O)c1ccc([N+](=O)[O-])o1)C1CCN(c2ccc(N3C[C@H](CNC(C)=O)OC3=O)cc2F)CC1 [Compound No. 80, (S)-N-[[3-[3-Fluoro-4-[4-{N-ethyl-2-furoyl-(5-nitro)}aminopiperidine-1-yl]phenyl]-2-oxo-5-oxazolidinyl]methyl]acetamide]	1	4	1	1	0.5	1	1	2	4
CC(=O)NC[C@H]1CN(c2ccc(N3C(C)CN(C(=O)c4ccco4)CC3C)c(F)c2)C(=O)O1 (stereo partly drawn) [Compound No. 61, (S)-N-[[3-[3-Fluoro-4-[N-1-[2,6-dimethyl-4-{2-furoyl-}]-piperazinyl]phenyl]-2-oxo-5-oxazolidinyl]methyl]acetamide]	4	2	4	4	4	4	4	2	2
CC(=O)NC[C@H]1CN(c2ccc(N3C(C)CN(C(=O)Cc4cccs4)CC3C)c(F)c2)C(=O)O1 (stereo partly drawn) [Compound No. 66, (S)-N-[[3-[3-Fluoro-4-[N-1-[2,6-dimethyl-4-(2-thienylacetyl)]-piperazinyl]phenyl]-2-oxo-5-oxazolidinyl]methyl]acetamide]	8	16	8	8	8	8	8	16	16
